Assay results published in patent US20220275025A1, “BONE REMODELING REGULATORY PEPTIDES AND APPLICATION THEREOF” (THE SECOND XIANGYA HOSPITAL OF CENTRAL SOUTH UNIVERSITY, priority 2019, published 2022).
Square brackets hold non-standard residues; d marks the D form. Ends that are not written are not given here. Peptide text beside a SMILES is read from it. Hyp = O=C(O)[C@@H]1C[C@@H](O)CN1

Assays:
mOSCAR = molecular target: T1, mOSCAR (Mus musculus, UniProt Q8VBT3); assay: Solid-phase binding experiment of collagen peptides with mOSCAR-His fusion protein; conditions: peptide coated on 96-well plate, mOSCAR-His 37° C. 3 hours, absorbance at 492 nm
T1 construct: The extracellular domains of the mOSCAR were amplified by RT-PCR and inserted with expression vectors of His tag fusion proteins; made in house; host or cells: HEK293T cells
T1 sequence (Q8VBT3 19-231 limits assumed): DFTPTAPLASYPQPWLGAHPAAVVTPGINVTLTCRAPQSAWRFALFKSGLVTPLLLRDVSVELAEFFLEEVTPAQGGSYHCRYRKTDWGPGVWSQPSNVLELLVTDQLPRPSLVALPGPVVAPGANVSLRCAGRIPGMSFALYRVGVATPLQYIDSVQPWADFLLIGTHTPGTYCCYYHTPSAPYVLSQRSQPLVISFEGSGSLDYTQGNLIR
Method: 1) The extracellular domains of the mOSCAR were amplified by RT-PCR and inserted with expression vectors of His tag fusion proteins. Then, the constructed vectors were transfected into HEK293T cells for expression, and mOSCAR-His fusion protein were purified by ion-exchange chromatography and molecular sieve chromatography.
2) Collagen peptides were dissolved with 10 mM acetic acid and wrapped to a 96-well microtitration plate overnight. After being sealed in phosphate buffer containing bovine serum albumin at room temperature for 1 hour, mOSCAR-His fusion protein was added and incubated at 37° C. for 3 hours. Then, horseradish peroxidase-labeled goat anti-mouse IgG antibody that capable of reacting specifically with His added and incubated at room temperature for 1 hour. The binding mOSCAR-His fusion protein was detected by O-phenylenediamine dihydrochloride. The reaction was terminated by 3 M H2SO4, and the absorbance at 492 nm was measured. It was confirmed that the type II collagen peptide (OSC^pep) and 4 segments of type I collagen peptides (A1-1, A1-2-1, A1-4-1, A1-5-3) could bind to the mOSCAR (FIG. 5).

Primary BMMs [1] = assay: Cytotoxicity experiment, CCK-8 kit; format: cell-based, mouse; conditions: 0, 1, 10, 100, 200, 500, 800, 1000, and 1500 μg/mL, 24 and 48 hours
Method: (§1) 1) Bilateral femurs and tibias of wild-type female mice were aseptically isolated, and bone marrow cells were obtained by repeatedly washing bone marrow cavities with culture medium. After culturing in α-MEM complete medium containing M-CSF (30 ng/mL) for 24-hour, nonadherent cells were suctioned, centrifuged, and resuspended, and then cultured in the α-MEM complete medium containing M-CSF (30 ng/mL) for 3 days to obtain adherent mouse primary bone marrow mononuclear macrophages (osteoclast precursor cells). Osteoclast precursor cells were conducted by M-CSF (50 ng/mL) and RANKL (100 ng/mL) to obtain osteoclast and identified by TRAP staining (FIG. 1A). The expression of the collagen receptor OSCAR on osteoclast precursor cells and osteoclasts were determined by immunofluorescence (FIG. 1B) and Western blot (FIG. 1C).
1) Primary BMMs were cultured in vitro according to the method in Part 1 above, the A1-1/A1-4-1 collagen peptide was taken as an example for carrying out the cytotoxicity experiment. Primary BMMs were treated with different concentrations (0, 1, 10, 100, 200, 500, 800, 1000, and 1500 μg/mL) of collagen peptide for 24 and 48 hours, and the cytotoxicity was determined by CCK-8 kit.

Primary BMMs [2] = assay: Osteoclast differentiation induced by M-CSF and RANKL, TRAP staining; format: cell-based, mouse
Method: as §1
2) Primary BMMs were treated with different concentrations of 5 collagen peptides, and induced to differentiate into osteoclasts by M-CSF and RANKL. The effect of different concentrations of collagen peptides on osteoclast differentiation was verified by TRAP staining. It was confirmed that all of the bone remodeling regulatory peptides could promote osteoclast differentiation at low concentration and inhibit osteoclast differentiation at high concentration (FIG. 6A).

osteoclasts = assay: Bone resorption of osteoclasts in peptide-primary BMMs-bone slice culture system, WGA staining; format: cell-based, mouse
From the text: 3) Different concentrations of bone remodeling regulatory peptides-primary BMMs-bone slice culture system was constructed by using the above-mentioned method, and the cells in the system were induced to differentiate into osteoclasts by M-CSF and RANKL at the same time. The effect of collagen peptides on bone resorption of osteoclasts was verified by wheat germ agglutinin (WGA) staining. It was confirmed that all of the bone remodeling regulatory peptides could promote bone resorption of osteoclasts at low concentration and inhibit bone resorption of osteoclasts at high concentration (FIG. 6B).

Primary pre-osteoblasts = assay: Osteoblast differentiation, ALP staining; format: cell-based, mouse
Method: 2) After skulls of the wild-type mice were aseptically isolated, cells were isolated by collagenase digestion and nucleated cells were obtained by density gradient centrifugation. Cells were induced to differentiate into osteoblasts by medium containing 10 mM β-sodium glycerophosphate, 50 μM vitamin C and 10^−7 M dexamethasone and identified by ALP staining (FIG. 1D). The expression of the collagen receptor OSCAR on pre-osteoblasts induced for 0th, 7th, 14th, 21st, and 35th day and MLO-Y4 bone cell lines was determined by immunohistochemistry (FIG. 1E) and Western blot (FIG. 1F).
4) Primary pre-osteoblasts were cultured in vitro according to the method in Part 1 above. Then, cells were treated with different concentrations of 5 segments of collagen peptides, and induced to differentiate into osteoblast by 10 mM […], 50 μM vitamin C and 10^−7 M dexamethasone at the same time. The effect of the collagen peptides on osteoblast differentiation was verified by ALP staining. It was confirmed that the bone remodeling regulatory peptides could inhibit osteoblast differentiation and bone formation at low concentration and promote osteoblast differentiation and bone formation at high concentration (FIG. 6C). […]

binding to the mOSCAR (mOSCAR)	Compound	cytotoxicity (Primary BMMs [1])	also measured
could bind	C[C@H](NC(=O)[C@H](Cc1ccccc1)NC(=O)CNC(=O)[C@H](C)NC(=O)[C@@H]1CCCN1C(=O)CNC(=O)[C@@H]1C[C@@H](O)CN1C(=O)[C@@H]1CCCN1C(=O)CN)C(=O)O [A1-4-1, Gly-Pro-Pro-Gly-Pro-Ala-Gly-Phe-Ala] (H-GP[Hyp]GPAGFA-OH)	no toxic effect	–
could bind	C[C@H](NC(=O)CN)C(=O)N1C[C@H](O)C[C@H]1C(=O)NCC(=O)N1CCC[C@H]1C(=O)N[C@@H](CCC(N)=O)C(=O)NCC(=O)N[C@@H](Cc1ccccc1)C(=O)N[C@@H](CCC(N)=O)C(=O)O [A1-1, Gly-Ala-Pro-Gly-Pro-Gln-Gly-Phe-Gln] (H-GA[Hyp]GPQGFQ-OH)	no toxic effect	–
could bind	Gly-Ala-Pro-Gly-Pro-Ala-Gly-Phe-Ala (GA[Hyp]GPAGFA) [OSC^pep]	–	concentration that inhibits osteoclast differentiation (Primary BMMs [2]; high concentration): ≥ 8000 µg/mL; concentration that promotes osteoclast differentiation (Primary BMMs [2]; low concentration): < 8000 µg/mL; concentration that inhibits bone resorption (osteoclasts; high concentration): ≥ 8000 µg/mL; concentration that promotes bone resorption (osteoclasts; low concentration): < 8000 µg/mL; concentration that inhibits osteoblast differentiation and bone formation (Primary pre-osteoblasts): < 8000 µg/mL; concentration that promotes osteoblast differentiation and bone formation (Primary pre-osteoblasts): ≥ 8000 µg/mL
could bind	Gly-Ala-Pro-Gly-Ala-Pro-Gly-Ser-Gln (GA[Hyp]GA[Hyp]GSQ) [A1-2-1]	–	–
could bind	Gly-Pro-Pro-Gly-Ala-Thr-Gly-Phe-Pro (GP[Hyp]GATGFP) [A1-5-3]	–	–
